Measurements taken from article PMC9377102, “Toxicity and toxicokinetics of the ethanol extract of Zuojin formula” (BMC Complementary Medicine and Therapies, 2022).
Where two headings read alike, the source gives them in different places.

Test: Toxicokinetics test in the satellite groups (UPLC-MS/MS of rat plasma)
Type: in vivo
Details: for AUC(0-t) / Cmax / Tmax / half-life: SD, rat, plasma, po; for half-life: read-out: T1/2 mean (converted)
Method: SD rats (5 ~ 6 weeks, 3/group/sex) were randomly allocated to three treatment groups and given the same dosage as those in the repeated toxicity experiment for 28 days. […] Carbamazepine was chosen as the internal standard (IS). The blood samples were centrifuged to obtain plasma. Then, 300 μL of acetonitrile containing 40 ng of IS was added to 100 μL of plasma. After vortexing for 1 min, the mixture was centrifuged at 17,000 rpm for 15 min at 4 °C. The supernatant of each sample was injected into a UPLC–MS/MS system for determination. The injection volume was 1 μL. UPLC–MS analysis was performed on a Thermo Fisher Scientific Ultimate 3000 UPLC system (San Jose, USA) and an API 4000 QTRAP mass spectrometer (Foster City, USA) equipped with an ESI source. The mobile phase consisted of 2 solvents: (A) water containing 0.1% formic acid and (B) 100% acetonitrile. For MS, multiple reaction monitoring (MRM) in positive ion mode was used as the scanning mode for the main components and IS in the plasma samples. The dwell time (DT), collision energy (CE), quadrupole 1 pre-rod bias (Q1) and quadrupole 3 pre-rod bias (Q3) are listed in Table 3.

[1] = female, female rats, Day 1, highest dose (berberine 72.08, epiberberine 7.42, coptisine 7.42, palmatine 18.26, jatrorrhizine 2.80, columbamine 5.93 mg/kg)
[2] = female, female rats, Day 1, lowest dose (berberine 8.01, epiberberine 0.82, coptisine 1.38, palmatine 2.03, jatrorrhizine 0.31, columbamine 0.66 mg/kg)
[3] = female, female rats, Day 1, middle dose (berberine 24.03, epiberberine 2.47, coptisine 2.47, palmatine 6.09, jatrorrhizine 0.93, columbamine 1.98 mg/kg)
[4] = female, female rats, Day 28, highest dose (berberine 72.08, epiberberine 7.42, coptisine 7.42, palmatine 18.26, jatrorrhizine 2.80, columbamine 5.93 mg/kg)
[5] = female, female rats, Day 28, lowest dose (berberine 8.01, epiberberine 0.82, coptisine 1.38, palmatine 2.03, jatrorrhizine 0.31, columbamine 0.66 mg/kg)
[6] = female, female rats, Day 28, middle dose (berberine 24.03, epiberberine 2.47, coptisine 2.47, palmatine 6.09, jatrorrhizine 0.93, columbamine 1.98 mg/kg)
[7] = male, male rats, Day 1, highest dose (berberine 72.08, epiberberine 7.42, coptisine 7.42, palmatine 18.26, jatrorrhizine 2.80, columbamine 5.93 mg/kg)
[8] = male, male rats, Day 1, lowest dose (berberine 8.01, epiberberine 0.82, coptisine 1.38, palmatine 2.03, jatrorrhizine 0.31, columbamine 0.66 mg/kg)
[9] = male, male rats, Day 1, middle dose (berberine 24.03, epiberberine 2.47, coptisine 2.47, palmatine 6.09, jatrorrhizine 0.93, columbamine 1.98 mg/kg)
[10] = male, male rats, Day 28, highest dose (berberine 72.08, epiberberine 7.42, coptisine 7.42, palmatine 18.26, jatrorrhizine 2.80, columbamine 5.93 mg/kg)
[11] = male, male rats, Day 28, lowest dose (berberine 8.01, epiberberine 0.82, coptisine 1.38, palmatine 2.03, jatrorrhizine 0.31, columbamine 0.66 mg/kg)
[12] = male, male rats, Day 28, middle dose (berberine 24.03, epiberberine 2.47, coptisine 2.47, palmatine 6.09, jatrorrhizine 0.93, columbamine 1.98 mg/kg)

Compound `COc1cc2c(cc1O)-c1cc3ccc(OC)c(OC)c3c[n+]1CC2` [columbamine] has an AUC(0-t) (female, 0.4 g/kg, female rats, Day 1, low dose TAZF 0.4 g/kg by gavage, read-out: AUC0-t) of 71.4 ± 80.1 ng·h/mL, a Cmax (female, 0.4 g/kg, female rats, Day 1, low dose TAZF 0.4 g/kg by gavage, read-out: Cmax) of 30 ± 20.7 ng/mL and an AUC(0-t) (female, 0.4 g/kg, female rats, Day 28, low dose TAZF 0.4 g/kg by gavage, read-out: AUC0-t) of 68.1 ± 76.9 ng·h/mL. It also gave a Cmax (female, 0.4 g/kg, female rats, Day 28, low dose TAZF 0.4 g/kg by gavage, read-out: Cmax) of 30.3 ± 40 ng/mL, an AUC(0-t) (female, 3.7 g/kg, female rats, Day 1, high dose TAZF 3.7 g/kg by gavage, read-out: AUC0-t) of 41.1 ± 10 ng·h/mL and a Cmax (female, 3.7 g/kg, female rats, Day 1, high dose TAZF 3.7 g/kg by gavage, read-out: Cmax) of 37.7 ± 30.4 ng/mL. For the same compound, the AUC(0-t) (female, 3.7 g/kg, female rats, Day 28, high dose TAZF 3.7 g/kg by gavage, read-out: AUC0-t) was 12.2 ± 4.52 ng·h/mL, the Cmax (female, 3.7 g/kg, female rats, Day 28, high dose TAZF 3.7 g/kg by gavage, read-out: Cmax) was 2.98 ± 0.24 ng/mL and the Tmax [1] was 0.5 h. It also gave an AUC(0-t) (female, female rats, Day 1, highest dose (berberine 72.08, epiberberine 7.42, coptisine 7.42, palmatine 18.26, jatrorrhizine 2.80, columbamine 5.93 mg/kg), read-out: AUC0-t mean) of 41.1 ng·h/mL, a Cmax (female, female rats, Day 1, highest dose (berberine 72.08, epiberberine 7.42, coptisine 7.42, palmatine 18.26, jatrorrhizine 2.80, columbamine 5.93 mg/kg), read-out: Cmax mean) of 37.7 ng/mL and a half-life [1] of 494 min. For the same compound, the Tmax [2] was 2.33 h, the AUC(0-t) (female, female rats, Day 1, lowest dose (berberine 8.01, epiberberine 0.82, coptisine 1.38, palmatine 2.03, jatrorrhizine 0.31, columbamine 0.66 mg/kg), read-out: AUC0-t mean) was 71.4 ng·h/mL and the Cmax (female, female rats, Day 1, lowest dose (berberine 8.01, epiberberine 0.82, coptisine 1.38, palmatine 2.03, jatrorrhizine 0.31, columbamine 0.66 mg/kg), read-out: Cmax mean) was 30 ng/mL. For the same compound, the half-life [2] was 259 min, the Tmax [3] was 0.83 h and the AUC(0-t) (female, female rats, Day 1, middle dose (berberine 24.03, epiberberine 2.47, coptisine 2.47, palmatine 6.09, jatrorrhizine 0.93, columbamine 1.98 mg/kg), read-out: AUC0-t mean) was 59.2 ng·h/mL. It also gave a Cmax (female, female rats, Day 1, middle dose (berberine 24.03, epiberberine 2.47, coptisine 2.47, palmatine 6.09, jatrorrhizine 0.93, columbamine 1.98 mg/kg), read-out: Cmax mean) of 39.6 ng/mL, a half-life [3] of 467 min and a Tmax [4] of 1.17 h. For the same compound, the AUC(0-t) (female, female rats, Day 28, highest dose (berberine 72.08, epiberberine 7.42, coptisine 7.42, palmatine 18.26, jatrorrhizine 2.80, columbamine 5.93 mg/kg), read-out: AUC0-t mean) was 12.2 ng·h/mL, the Cmax (female, female rats, Day 28, highest dose (berberine 72.08, epiberberine 7.42, coptisine 7.42, palmatine 18.26, jatrorrhizine 2.80, columbamine 5.93 mg/kg), read-out: Cmax mean) was 2.98 ng/mL and the half-life [4] was 746 min. It also gave a Tmax [5] of 0.42 h, an AUC(0-t) (female, female rats, Day 28, lowest dose (berberine 8.01, epiberberine 0.82, coptisine 1.38, palmatine 2.03, jatrorrhizine 0.31, columbamine 0.66 mg/kg), read-out: AUC0-t mean) of 68.1 ng·h/mL and a Cmax (female, female rats, Day 28, lowest dose (berberine 8.01, epiberberine 0.82, coptisine 1.38, palmatine 2.03, jatrorrhizine 0.31, columbamine 0.66 mg/kg), read-out: Cmax mean) of 30.3 ng/mL. It also gave a half-life [5] of 657 min, a Tmax [6] of 1.5 h and an AUC(0-t) (female, female rats, Day 28, middle dose (berberine 24.03, epiberberine 2.47, coptisine 2.47, palmatine 6.09, jatrorrhizine 0.93, columbamine 1.98 mg/kg), read-out: AUC0-t mean) of 9.42 ng·h/mL. It also gave a Cmax (female, female rats, Day 28, middle dose (berberine 24.03, epiberberine 2.47, coptisine 2.47, palmatine 6.09, jatrorrhizine 0.93, columbamine 1.98 mg/kg), read-out: Cmax mean) of 1.35 ng/mL, a half-life [6] of 639 min and an AUC(0-t) (male, 0.4 g/kg, male rats, Day 1, low dose TAZF 0.4 g/kg by gavage, read-out: AUC0-t) of 153 ± 54.9 ng·h/mL. It also gave a Cmax (male, 0.4 g/kg, male rats, Day 1, low dose TAZF 0.4 g/kg by gavage, read-out: Cmax) of 32.1 ± 28.7 ng/mL, an AUC(0-t) (male, 0.4 g/kg, male rats, Day 28, low dose TAZF 0.4 g/kg by gavage, read-out: AUC0-t) of 31.1 ± 2.21 ng·h/mL and a Cmax (male, 0.4 g/kg, male rats, Day 28, low dose TAZF 0.4 g/kg by gavage, read-out: Cmax) of 44.2 ± 42.3 ng/mL. For the same compound, the AUC(0-t) (male, 3.7 g/kg, male rats, Day 1, high dose TAZF 3.7 g/kg by gavage, read-out: AUC0-t) was 276 ± 92 ng·h/mL, the Cmax (male, 3.7 g/kg, male rats, Day 1, high dose TAZF 3.7 g/kg by gavage, read-out: Cmax) was 46.5 ± 30.3 ng/mL and the AUC(0-t) (male, 3.7 g/kg, male rats, Day 28, high dose TAZF 3.7 g/kg by gavage, read-out: AUC0-t) was 65.1 ± 6.74 ng·h/mL. For the same compound, the Cmax (male, 3.7 g/kg, male rats, Day 28, high dose TAZF 3.7 g/kg by gavage, read-out: Cmax) was 16.4 ± 11.8 ng/mL, the Tmax [7] was 4 h and the AUC(0-t) (male, male rats, Day 1, highest dose (berberine 72.08, epiberberine 7.42, coptisine 7.42, palmatine 18.26, jatrorrhizine 2.80, columbamine 5.93 mg/kg), read-out: AUC0-t mean) was 276 ng·h/mL. The Cmax (male, male rats, Day 1, highest dose (berberine 72.08, epiberberine 7.42, coptisine 7.42, palmatine 18.26, jatrorrhizine 2.80, columbamine 5.93 mg/kg), read-out: Cmax mean) was 46.5 ng/mL, the half-life [7] was 652 min and the Tmax [8] was 10 h. It also gave an AUC(0-t) (male, male rats, Day 1, lowest dose (berberine 8.01, epiberberine 0.82, coptisine 1.38, palmatine 2.03, jatrorrhizine 0.31, columbamine 0.66 mg/kg), read-out: AUC0-t mean) of 153 ng·h/mL, a Cmax (male, male rats, Day 1, lowest dose (berberine 8.01, epiberberine 0.82, coptisine 1.38, palmatine 2.03, jatrorrhizine 0.31, columbamine 0.66 mg/kg), read-out: Cmax mean) of 32.1 ng/mL and a half-life [8] of 2860 min. The Tmax [9] was 1.83 h, the AUC(0-t) (male, male rats, Day 1, middle dose (berberine 24.03, epiberberine 2.47, coptisine 2.47, palmatine 6.09, jatrorrhizine 0.93, columbamine 1.98 mg/kg), read-out: AUC0-t mean) was 207 ng·h/mL and the Cmax (male, male rats, Day 1, middle dose (berberine 24.03, epiberberine 2.47, coptisine 2.47, palmatine 6.09, jatrorrhizine 0.93, columbamine 1.98 mg/kg), read-out: Cmax mean) was 41.7 ng/mL. The half-life [9] was 3600 min, the Tmax [10] was 4.08 h and the AUC(0-t) (male, male rats, Day 28, highest dose (berberine 72.08, epiberberine 7.42, coptisine 7.42, palmatine 18.26, jatrorrhizine 2.80, columbamine 5.93 mg/kg), read-out: AUC0-t mean) was 65.1 ng·h/mL. The Cmax (male, male rats, Day 28, highest dose (berberine 72.08, epiberberine 7.42, coptisine 7.42, palmatine 18.26, jatrorrhizine 2.80, columbamine 5.93 mg/kg), read-out: Cmax mean) was 16.4 ng/mL, the half-life [10] was 675 min and the Tmax [11] was 0.83 h. It also gave an AUC(0-t) (male, male rats, Day 28, lowest dose (berberine 8.01, epiberberine 0.82, coptisine 1.38, palmatine 2.03, jatrorrhizine 0.31, columbamine 0.66 mg/kg), read-out: AUC0-t mean) of 31.1 ng·h/mL, a Cmax (male, male rats, Day 28, lowest dose (berberine 8.01, epiberberine 0.82, coptisine 1.38, palmatine 2.03, jatrorrhizine 0.31, columbamine 0.66 mg/kg), read-out: Cmax mean) of 44.2 ng/mL and a half-life [11] of 451 min. The Tmax [12] was 12 h, the AUC(0-t) (male, male rats, Day 28, middle dose (berberine 24.03, epiberberine 2.47, coptisine 2.47, palmatine 6.09, jatrorrhizine 0.93, columbamine 1.98 mg/kg), read-out: AUC0-t mean) was 90.6 ng·h/mL and the Cmax (male, male rats, Day 28, middle dose (berberine 24.03, epiberberine 2.47, coptisine 2.47, palmatine 6.09, jatrorrhizine 0.93, columbamine 1.98 mg/kg), read-out: Cmax mean) was 21.4 ng/mL. For the same compound, the half-life [12] was 244 min and the “Systemic exposure after 28 days of administration vs single administration” value (rats, oral TAZF) was “much lower”.
